Reference: patent US10072304B2, “Nuclear localization of Src-family tyrosine kinases is required for growth factor-induced euchromatinization” (National University Corporation Chiba University, priority 2009, dated 2018)
Entries after “also recorded” stand apart in the source; their conditions may differ.

Tests used:
COS-1 cells = assay: Anti-pTyr immunofluorescent staining of tyrosine phosphorylation in COS-1 cells; format: cell-based, monkey
Method: COS-1, HeLa cells (Japanese Collection of Research Bioresources, Osaka), MCF-7 (provided by H. Saya), A431 (provided by M. N. Fukuda), HEK293 (provided by M. Tagawa), HCT116 (provided by T. Tomonaga), and SYF ([37]; provided by M. Okada and S. Nada) cells were cultured in Iscove's modified DME containing 5% fetal bovine serum (FBS). Cells were transiently transfected with 0.5 μg of plasmid vector using Trans IT Transfection reagent (Mirus) or with 1 μg of plasmid vector using linear polyethylenimine (25 kDa) (Polyscience, Inc.). For growth factor stimulation, COS-1 cells were starved under low serum conditions (0.05% FBS) for 24 h and restimulated with serum (5% FBS). For stimulation of endogenous SFKs, cells were treated with 3 mM Na3VO4 for 3 h, and SFK-mediated tyrosine phosphorylation was verified by treatment with 10 μM PP2 (SFK inhibitor; Calbiochem) or 100 nM wortmannin (PI3K inhibitor; Alomone Labs) for 21 h before Na3VO4 treatment. Na3VO4 was dissolved at 500 mM in 500 mM unbuffered HEPES before use. For preparation of stable transfectant clones, SYF cells transfected with c-Src-wt or Lyn-wt were selected in 333 μg/mL Zeocin (Invitrogen), and COS-1 cells were transfected with the BOSH2BGFP-N1 vector, which encodes GFP-tagged histone H2B ([39,40]; provided by H. Saya), were selected in 3 μg/mL blasticidin.
Confocal and Nomarski differential-interference-contrast images were obtained using a Fluoview FV500 confocal laser scanning microscope with a 40×1.00 NA oil and a 100×1.35 NA oil immersion objective (Olympus, Tokyo) and an LSM 510 confocal laser scanning microscope with a 63×1.40 NA oil immersion objective (Zeiss), as described. One planar (xy) section slice (0.6-μm thickness) is shown in all experiments. In brief, cells were fixed with 4% paraformaldehyde for 20 min, and permeabilized in phosphate-buffered saline (PBS) containing 0.1% saponin and 3% bovine serum albumin at room temperature. Cells were subsequently reacted with an appropriate primary antibody for 1 h, washed with PBS containing 0.1% saponin, stained with FITC- or TRITC-conjugated secondary antibody for 1 h. For DNA staining, cells were subsequently treated with 200 μg/ml RNase A for 1 h and 20 μg/ml propidium iodide (PI) for 30 min, and mounted with Prolong Antifade™ reagent (Molecular Probes). To ensure no bleed-through from the fluorescein signal into the red channel, fluorescein and rhodamine were independently excited at 488 nm and 543 nm, respectively. PI was excited at 488 or 543 nm. Emission signals were detected between 505 and 525 nm for fluorescein, at more than 560 nm for rhodamine and more than 610 nm for PI [44]. Composite figures were prepared using Photoshop 5.0 and Illustrator 9.0 software (Adobe). For nuclear staining with anti-pTyr, anti-ATF-2 pT69/71, and anti-histone H3K4me3 antibodies, cells were in situ extracted with 0.5% Triton X-100 at 4° C. for 3 min before fixation with 4% paraformaldehyde. For HP1α staining, cells were fixed in 100% methanol at −20° C. for 10 min followed by permeabilization for 30 min in PBS containing 0.1% Triton X-100 at room temperature. Cells were reacted with anti-HP1α antibody for 1 h at room temperature, washed with PBS four times, and stained with secondary antibody for 1 h. Fluorescence intensity plots of anti-histone H3K4me3, anti-ATF-2 pT69/71 and anti-HP1α antibody and PI staining (see FIGS. 18B, 19B, and 20B, respectively) were generated using Fluoview version 4.3 software (Olympus, Tokyo). […]

SYF cells = assay: Quantitation of chromatin condensation levels (S.D. value of PI intensity per pixel) in SYF cells; format: cell-based, mouse; conditions: 3 mM Na3VO4 for 3 h
Method: COS-1, HeLa cells (Japanese Collection of Research Bioresources, Osaka), MCF-7 (provided by H. Saya), A431 (provided by M. N. Fukuda), HEK293 (provided by M. Tagawa), HCT116 (provided by T. Tomonaga), and SYF ([37]; provided by M. Okada and S. Nada) cells were cultured in Iscove's modified DME containing 5% fetal bovine serum (FBS). Cells were transiently transfected with 0.5 μg of plasmid vector using Trans IT Transfection reagent (Mirus) or with 1 μg of plasmid vector using linear polyethylenimine (25 kDa) (Polyscience, Inc.). For growth factor stimulation, COS-1 cells were starved under low serum conditions (0.05% FBS) for 24 h and restimulated with serum (5% FBS). […]
Confocal and Nomarski differential-interference-contrast images were obtained using a Fluoview FV500 confocal laser scanning microscope with a 40×1.00 NA oil and a 100×1.35 NA oil immersion objective (Olympus, Tokyo) and an LSM 510 confocal laser scanning microscope with a 63×1.40 NA oil immersion objective (Zeiss), as described. […] Emission signals were detected between 505 and 525 nm for fluorescein, at more than 560 nm for rhodamine and more than 610 nm for PI [44]. […] Fluorescence intensity plots of anti-histone H3K4me3, anti-ATF-2 pT69/71 and anti-HP1α antibody and PI staining (see FIGS. 18B, 19B, and 20B, respectively) were generated using Fluoview version 4.3 software (Olympus, Tokyo). […]

Row | Compound | tyrosine phosphorylation throughout the cell (COS-1 cells; 3 mM Na3VO4 for 3 h, FIG. 23) | tyrosine phosphorylation within the nucleus (COS-1 cells; Na3VO4, in situ extraction with 0.5% Triton X-100 before fixation, FIGS. 24 and 25) | levels of chromatin hypo- and hypercondensation (SYF cells; SYF cells, FIG. 49) | chromatin hypo- and hypercondensation (SYF cells; SYF/c-Src-wt cells, FIGS. 48A and 49) | basal levels of tyrosine phosphorylation (COS-1 cells; 10 μM PP2 or 100 nM wortmannin for 24 h, FIG. 22) | tyrosine phosphorylation in Na3VO4-treated cells (COS-1 cells; 10 μM PP2 pretreatment 21 h, then 3 mM Na3VO4 3 h, FIG. 23) | Na3VO4-induced increase in nuclear tyrosine phosphorylation (COS-1 cells; PP2 plus Na3VO4, in situ extraction with 0.5% Triton X-100, FIGS. 24 and 25)
1 | [Na+].[Na+].[Na+].[O]=[V]([O-])([O-])[O-] [Na3VO4, sodium orthovanadate] | greatly increased | increase in tyrosine phosphorylation induced by Na3VO4 was clearly visible | much lower than those in Na3VO4-treated COS-1 cells; also recorded: modestly induced | an increase | – | – | –
2 | CC(C)(C)n1nc(-c2ccc(Cl)cc2)c2c(N)ncnc21 [PP2] | – | – | – | – | significantly reduce | decreased | significantly inhibited
